Active and inactive are the calls of the source. The calls are words filed in the database; no cut-off is given here.
Key:
Mus musculus [1] = test: Hypoglycemic activity in HFD-induced obese Jcl:MCH mouse model assessed as decrease in fasting blood glucose levels administered as supplement for 86 days measured after 92 to 94 days by OGTT relative to HFD-fed control; format: functional, organism-based
Mus musculus [2] = test: Reduction in leptin mRNA levels in HFD-induced obese Jcl:MCH mouse model adipose tissue administered as supplement for 86 days measured after 100 days by RT-PCR relative to HFD-fed control; format: functional, organism-based
Mus musculus [3] = test: Hypoglycemic activity in HFD-induced obese Jcl:MCH mouse model assessed as decrease in post prandial blood glucose levels administered as supplement for 86 days measured after 92 to 94 days by OGTT relative to HFD-fed control; format: functional, organism-based
Mus musculus [4] = test: Antiobesity activity in HFD-induced obese Jcl:MCH mouse model assessed as decrease in visceral fat administered as supplement for 86 days measured after 90 days by MRI relative to control; format: functional
Mus musculus [5] = test: Reduction in serum leptin levels in HFD-induced obese Jcl:MCH mouse model administered as supplement for 86 days measured after 100 days by ELISA relative to HFD-fed control; format: functional, organism-based
3T3-L1 [6] = test: Increase in adiponectin mRNA levels in TNFalpha-induced mouse 3T3L1 cells pretreated at 25 to 50 uM before TNF-alpha challenge relative to control; format: functional, cell-based
Mus musculus [7] = test: Reduction in SREBP1c mRNA levels in HFD-induced obese Jcl:MCH mouse model administered as supplement for 86 days measured after 100 days by RT-PCR relative to HFD-fed control; format: functional, organism-based
Mus musculus [8] = test: Reduction in TNFalpha mRNA levels in HFD-induced obese Jcl:MCH mouse model adipose tissue administered as supplement for 86 days measured after 100 days by RT-PCR relative to HFD-fed control; format: functional, organism-based
Mus musculus [9] = test: Antiobesity activity in HFD-induced obese Jcl:MCH mouse model assessed as decrease in body weight administered as supplement for 86 days (reference value: 51.2 +/- 2.7 g); format: functional
Mus musculus [10] = test: Reduction in ACC mRNA levels in HFD-induced obese Jcl:MCH mouse model liver administered as supplement for 86 days measured after 100 days by RT-PCR relative to HFD-fed control; format: functional, organism-based
Mus musculus [11] = test: Reduction in FAS mRNA levels in HFD-induced obese Jcl:MCH mouse model liver administered as supplement for 86 days measured after 100 days by RT-PCR relative to HFD-fed control; format: functional, organism-based
Mus musculus [12] = test: Antiobesity activity in HFD-induced obese Jcl:MCH mouse model assessed as decrease in subcutaneous fat administered as supplement for 86 days measured after 90 days by MRI (reference value: 20.8 +/- 1.7 %); format: functional; set-up: scale not given: the % may be the effect or the level left
Mus musculus [13] = test: Reduction in serum insulin levels in HFD-induced obese Jcl:MCH mouse model administered as supplement for 86 days measured after 100 days by ELISA relative to HFD-fed control; format: functional, organism-based
3T3-L1 [14] = test: Increase in adiponectin mRNA levels in TNFalpha-induced mouse 3T3L1 cells pretreated at 10 uM before TNF-alpha challenge relative to control; format: functional, cell-based
[15] = Stability of the compound in simulated gastric fluid at pH 1.0 assessed as formation of shogaols; format: physicochemical; details: simulated gi fluid
Mus musculus [16] = test: Antiobesity activity in regular chow-fed Jcl:MCH mouse assessed as decrease in subcutaneous fat administered as supplement for 86 days measured after 90 days by MRI (reference value: 5.4 +/- 1.7%); format: functional; set-up: scale not given: the % may be the effect or the level left
Mus musculus [17] = test: Antiobesity activity in regular chow-fed Jcl:MCH mouse assessed as decrease in body weight administered as supplement for 86 days (reference value: 45.0 +/- 0.8 g); format: functional
[18] = Stability of the compound in 6 N HCl assessed as formation of shogaols; format: physicochemical; details: buffer
3T3-L1 [19] = test: Increase in adiponectin mRNA levels in TNFalpha-induced mouse 3T3L1 cells pretreated at 50 uM before TNF-alpha challenge relative to control; format: functional, cell-based

Compound | Activity (Mus musculus [1]) | Activity (Mus musculus [2]) | Activity (Mus musculus [3]) | Activity (Mus musculus [4]) | Activity (Mus musculus [5]) | Activity (3T3-L1 [6]) | Activity (Mus musculus [7]) | Activity (Mus musculus [8]) | Activity (Mus musculus [9]) | Activity (Mus musculus [10]) | Activity (Mus musculus [11]) | Activity (Mus musculus [12]) | Activity (Mus musculus [13]) | Activity (3T3-L1 [14]) | Stability [15] | Activity (Mus musculus [16]) | Activity (Mus musculus [17]) | Stability [18] | Activity (3T3-L1 [19])
CCCCCC(O)CC(=O)CCc1ccc(O)c(OC)c1 (configuration not stated) | Active | Active | Active | 3.5 g | Active | Active | Active | Active | 47.1 g | Active | Active | 6.7% | Active |  |  |  |  |  | 
CN(CCOc1ccc(CC2SC(=O)NC2=O)cc1)c1ccccn1 (configuration not stated) |  |  |  |  |  |  |  |  |  |  |  |  |  | Active |  |  |  |  | 
CCCCCC(O)CC(=O)NCc1ccc(O)c(OC)c1 (configuration not stated) | Active | Active | Active | 1.84 g | Active | Active | Active | Active | 41.6 g | Active | Active | 10.9% | Active |  | Stable | 6.7% | 41.6 g | Stable | Active

From ChEMBL document CHEMBL2150906, “Synthesis of a new [6]-gingerol analogue and its protective effect with respect to the development of metabolic syndrome in mice fed a high-fat diet” (J Med Chem, 2011)
